{"source": "paper doi:10.1101/2021.04.08.439011v1", "about": "(biorxiv, 2021)", "key": {"PIM3": {"molecular_target": "PIM3 (Homo sapiens, UniProt Q86V86)", "settings": "0.1 µM; binder"}, "PIK3CA(M1043I)": {"molecular_target": "PIK3CA(M1043I) (Homo sapiens, UniProt P42336, M1043I)", "settings": "0.1 µM; binder"}, "EPHB3": {"molecular_target": "EPHB3 (Homo sapiens, UniProt P54753)", "settings": "0.1 µM; binder"}, "STK39": {"molecular_target": "STK39 (Homo sapiens, UniProt Q9UEW8)", "settings": "0.1 µM; binder"}, "ACVR1": {"molecular_target": "ACVR1 (Homo sapiens, UniProt Q04771)", "sequence (Q04771 whole entry)": "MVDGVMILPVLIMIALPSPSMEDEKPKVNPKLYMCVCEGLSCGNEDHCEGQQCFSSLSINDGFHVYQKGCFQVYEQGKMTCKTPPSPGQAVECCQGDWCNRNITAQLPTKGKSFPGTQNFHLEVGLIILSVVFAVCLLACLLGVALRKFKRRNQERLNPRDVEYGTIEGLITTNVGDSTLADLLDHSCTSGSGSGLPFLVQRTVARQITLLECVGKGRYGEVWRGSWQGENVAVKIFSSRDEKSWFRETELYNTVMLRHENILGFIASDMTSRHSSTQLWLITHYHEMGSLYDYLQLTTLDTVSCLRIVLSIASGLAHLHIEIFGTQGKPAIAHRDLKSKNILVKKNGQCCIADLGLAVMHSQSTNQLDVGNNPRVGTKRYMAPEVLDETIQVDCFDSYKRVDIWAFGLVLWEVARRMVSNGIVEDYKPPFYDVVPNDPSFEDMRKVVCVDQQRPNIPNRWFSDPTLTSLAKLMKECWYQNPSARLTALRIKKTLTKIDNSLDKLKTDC", "settings": "0.1 µM; binder"}, "CSNK1D": {"molecular_target": "CSNK1D (Homo sapiens, UniProt P48730)", "sequence (P48730 whole entry)": "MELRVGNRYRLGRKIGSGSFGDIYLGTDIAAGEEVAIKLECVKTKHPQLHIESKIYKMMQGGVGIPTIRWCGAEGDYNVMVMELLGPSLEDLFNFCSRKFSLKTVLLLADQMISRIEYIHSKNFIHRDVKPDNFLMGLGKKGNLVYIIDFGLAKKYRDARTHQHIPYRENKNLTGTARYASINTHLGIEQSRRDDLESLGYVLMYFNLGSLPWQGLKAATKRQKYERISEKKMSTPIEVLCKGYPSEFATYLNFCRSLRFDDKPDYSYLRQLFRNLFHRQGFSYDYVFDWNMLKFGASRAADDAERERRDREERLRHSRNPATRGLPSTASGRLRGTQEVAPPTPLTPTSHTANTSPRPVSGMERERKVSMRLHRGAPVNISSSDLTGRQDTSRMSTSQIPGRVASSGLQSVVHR", "settings": "0.1 µM; binder"}, "GSK3B": {"molecular_target": "GSK3B (Homo sapiens, UniProt P49841)", "settings": "0.1 µM; binder"}, "CSNK1E": {"molecular_target": "CSNK1E (Homo sapiens, UniProt P49674)", "settings": "0.1 µM; binder"}, "CDC2L1": {"molecular_target": "CDC2L1 (Homo sapiens, UniProt P21127)", "settings": "0.1 µM; binder"}, "PIKFYVE": {"molecular_target": "PIKFYVE (Homo sapiens, UniProt Q9Y2I7)", "settings": "0.1 µM; binder"}, "CASK": {"molecular_target": "CASK (Homo sapiens, UniProt O14936)", "sequence (O14936 whole entry)": "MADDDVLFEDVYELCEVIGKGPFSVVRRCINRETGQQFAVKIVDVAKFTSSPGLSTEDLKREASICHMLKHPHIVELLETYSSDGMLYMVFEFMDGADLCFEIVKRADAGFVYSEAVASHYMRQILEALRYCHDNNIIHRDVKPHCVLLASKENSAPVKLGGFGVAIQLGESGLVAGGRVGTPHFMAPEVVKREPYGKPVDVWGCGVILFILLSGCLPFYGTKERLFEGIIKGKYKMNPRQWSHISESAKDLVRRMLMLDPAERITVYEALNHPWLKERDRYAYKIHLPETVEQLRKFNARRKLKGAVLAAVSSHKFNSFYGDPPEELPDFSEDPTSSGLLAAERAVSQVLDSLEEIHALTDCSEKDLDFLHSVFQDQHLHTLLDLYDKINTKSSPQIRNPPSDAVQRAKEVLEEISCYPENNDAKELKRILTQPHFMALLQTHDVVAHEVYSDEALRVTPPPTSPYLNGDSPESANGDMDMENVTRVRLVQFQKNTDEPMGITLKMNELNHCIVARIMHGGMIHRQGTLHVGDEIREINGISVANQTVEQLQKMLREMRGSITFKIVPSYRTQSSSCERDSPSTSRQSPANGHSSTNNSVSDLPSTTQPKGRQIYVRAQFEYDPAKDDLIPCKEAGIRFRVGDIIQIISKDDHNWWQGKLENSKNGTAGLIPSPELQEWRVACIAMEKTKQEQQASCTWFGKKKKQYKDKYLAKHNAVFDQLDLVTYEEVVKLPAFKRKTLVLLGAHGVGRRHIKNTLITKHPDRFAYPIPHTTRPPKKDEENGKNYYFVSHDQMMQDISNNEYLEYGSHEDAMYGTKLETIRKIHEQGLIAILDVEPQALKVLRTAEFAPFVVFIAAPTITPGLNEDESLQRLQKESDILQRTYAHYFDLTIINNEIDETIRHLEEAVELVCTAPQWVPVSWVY", "settings": "0.1 µM; binder"}, "JNK3": {"molecular_target": "JNK3 (Homo sapiens, UniProt P53779)", "settings": "0.1 µM; binder"}, "CLK4": {"molecular_target": "CLK4 (Homo sapiens, UniProt Q9HAZ1)", "sequence (Q9HAZ1 whole entry)": "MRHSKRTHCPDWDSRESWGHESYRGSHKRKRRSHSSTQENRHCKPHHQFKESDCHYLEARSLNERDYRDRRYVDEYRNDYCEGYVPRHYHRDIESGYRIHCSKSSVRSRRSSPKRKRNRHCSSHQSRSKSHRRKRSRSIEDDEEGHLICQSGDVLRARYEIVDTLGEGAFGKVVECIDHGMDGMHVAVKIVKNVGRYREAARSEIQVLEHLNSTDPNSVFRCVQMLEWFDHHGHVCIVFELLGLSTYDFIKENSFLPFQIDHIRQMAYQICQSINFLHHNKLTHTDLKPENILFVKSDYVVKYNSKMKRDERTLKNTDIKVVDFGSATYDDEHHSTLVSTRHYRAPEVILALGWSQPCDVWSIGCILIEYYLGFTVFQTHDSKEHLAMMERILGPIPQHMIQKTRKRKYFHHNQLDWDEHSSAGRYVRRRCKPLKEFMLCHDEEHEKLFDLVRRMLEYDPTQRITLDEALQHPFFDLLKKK", "settings": "0.1 µM; binder"}, "MET(M1250T)": {"molecular_target": "MET(M1250T) (Homo sapiens, UniProt P08581, M1250T)", "settings": "0.1 µM; binder"}, "PIK3CG": {"molecular_target": "PIK3CG (Homo sapiens, UniProt P48736)", "settings": "0.1 µM; binder"}, "LIMK2": {"molecular_target": "LIMK2 (Homo sapiens, UniProt P53671)", "sequence (P53671 whole entry)": "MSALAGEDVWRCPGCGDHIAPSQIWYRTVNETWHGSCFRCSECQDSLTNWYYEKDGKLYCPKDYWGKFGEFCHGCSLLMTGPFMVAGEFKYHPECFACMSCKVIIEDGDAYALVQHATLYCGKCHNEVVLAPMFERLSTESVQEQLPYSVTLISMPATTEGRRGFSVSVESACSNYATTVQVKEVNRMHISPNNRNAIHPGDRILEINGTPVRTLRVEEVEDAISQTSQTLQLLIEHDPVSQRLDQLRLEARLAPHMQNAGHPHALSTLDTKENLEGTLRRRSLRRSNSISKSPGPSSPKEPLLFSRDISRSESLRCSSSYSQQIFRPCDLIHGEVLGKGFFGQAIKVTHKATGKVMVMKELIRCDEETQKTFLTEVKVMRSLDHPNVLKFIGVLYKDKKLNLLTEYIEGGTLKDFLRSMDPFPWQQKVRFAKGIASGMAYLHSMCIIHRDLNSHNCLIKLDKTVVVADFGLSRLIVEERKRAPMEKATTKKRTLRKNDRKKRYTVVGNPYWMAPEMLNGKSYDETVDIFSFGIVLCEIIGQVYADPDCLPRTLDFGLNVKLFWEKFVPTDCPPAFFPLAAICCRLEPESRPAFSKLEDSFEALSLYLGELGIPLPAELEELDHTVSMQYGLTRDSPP", "settings": "0.1 µM; binder"}, "ADCK4": {"molecular_target": "ADCK4 (Homo sapiens, UniProt Q96D53)", "sequence (Q96D53 whole entry)": "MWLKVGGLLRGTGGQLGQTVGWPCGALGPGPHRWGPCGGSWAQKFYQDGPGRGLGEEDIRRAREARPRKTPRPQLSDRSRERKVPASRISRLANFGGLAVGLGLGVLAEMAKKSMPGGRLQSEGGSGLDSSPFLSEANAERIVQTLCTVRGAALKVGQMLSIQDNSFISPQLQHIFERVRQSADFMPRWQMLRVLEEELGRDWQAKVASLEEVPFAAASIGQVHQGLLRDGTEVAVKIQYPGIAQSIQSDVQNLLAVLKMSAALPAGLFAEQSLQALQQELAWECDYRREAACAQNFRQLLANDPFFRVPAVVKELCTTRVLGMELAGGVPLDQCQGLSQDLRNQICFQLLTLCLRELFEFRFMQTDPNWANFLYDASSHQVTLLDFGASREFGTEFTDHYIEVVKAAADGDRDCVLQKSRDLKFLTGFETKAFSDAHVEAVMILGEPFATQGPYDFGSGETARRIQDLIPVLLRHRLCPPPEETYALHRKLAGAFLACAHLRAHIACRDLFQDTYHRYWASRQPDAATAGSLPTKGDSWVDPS", "settings": "0.1 µM; binder"}, "PKAC-beta": {"molecular_target": "PKAC-beta (Homo sapiens, UniProt P22694)", "settings": "0.1 µM; binder"}, "PKN1": {"molecular_target": "PKN1 (Homo sapiens, UniProt Q16512)", "settings": "0.1 µM; binder"}, "PIM2": {"molecular_target": "PIM2 (Homo sapiens, UniProt Q9P1W9)", "sequence (Q9P1W9 whole entry)": "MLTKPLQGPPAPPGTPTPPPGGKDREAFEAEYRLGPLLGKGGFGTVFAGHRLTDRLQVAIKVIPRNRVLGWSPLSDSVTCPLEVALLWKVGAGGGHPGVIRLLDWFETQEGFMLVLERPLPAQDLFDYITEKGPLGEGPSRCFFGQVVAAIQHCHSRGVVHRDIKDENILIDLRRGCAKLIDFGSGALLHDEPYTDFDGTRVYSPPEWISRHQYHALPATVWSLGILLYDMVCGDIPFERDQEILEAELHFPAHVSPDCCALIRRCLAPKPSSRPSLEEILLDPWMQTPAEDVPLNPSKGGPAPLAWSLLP", "settings": "0.1 µM; binder"}, "PIK4CB": {"molecular_target": "PIK4CB (Homo sapiens, UniProt Q9UBF8)", "sequence (Q9UBF8 whole entry)": "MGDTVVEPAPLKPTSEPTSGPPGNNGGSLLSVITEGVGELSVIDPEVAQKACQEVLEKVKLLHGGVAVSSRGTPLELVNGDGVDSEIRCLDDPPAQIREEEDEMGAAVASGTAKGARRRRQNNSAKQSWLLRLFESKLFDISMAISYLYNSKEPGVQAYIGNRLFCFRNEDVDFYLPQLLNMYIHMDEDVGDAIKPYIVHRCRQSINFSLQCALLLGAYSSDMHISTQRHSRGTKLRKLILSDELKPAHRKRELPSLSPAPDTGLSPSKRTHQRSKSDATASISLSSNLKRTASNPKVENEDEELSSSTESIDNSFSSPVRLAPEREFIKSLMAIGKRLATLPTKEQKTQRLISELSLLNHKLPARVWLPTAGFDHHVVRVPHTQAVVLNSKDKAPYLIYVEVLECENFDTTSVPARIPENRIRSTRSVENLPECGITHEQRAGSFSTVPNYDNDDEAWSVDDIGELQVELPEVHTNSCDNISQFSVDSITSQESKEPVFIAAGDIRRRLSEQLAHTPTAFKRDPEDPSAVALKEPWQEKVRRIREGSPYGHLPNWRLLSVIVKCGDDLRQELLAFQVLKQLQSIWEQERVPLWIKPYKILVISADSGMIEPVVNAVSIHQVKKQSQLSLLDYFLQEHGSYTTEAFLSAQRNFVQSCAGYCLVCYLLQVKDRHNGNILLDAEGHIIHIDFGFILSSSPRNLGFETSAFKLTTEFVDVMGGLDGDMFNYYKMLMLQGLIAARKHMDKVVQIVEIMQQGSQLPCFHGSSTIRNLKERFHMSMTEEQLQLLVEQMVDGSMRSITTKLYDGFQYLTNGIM", "settings": "0.1 µM; binder"}, "FLT3": {"molecular_target": "T1, FLT3 (Homo sapiens, UniProt P36888)", "T1 sequence (P36888 1-993)": "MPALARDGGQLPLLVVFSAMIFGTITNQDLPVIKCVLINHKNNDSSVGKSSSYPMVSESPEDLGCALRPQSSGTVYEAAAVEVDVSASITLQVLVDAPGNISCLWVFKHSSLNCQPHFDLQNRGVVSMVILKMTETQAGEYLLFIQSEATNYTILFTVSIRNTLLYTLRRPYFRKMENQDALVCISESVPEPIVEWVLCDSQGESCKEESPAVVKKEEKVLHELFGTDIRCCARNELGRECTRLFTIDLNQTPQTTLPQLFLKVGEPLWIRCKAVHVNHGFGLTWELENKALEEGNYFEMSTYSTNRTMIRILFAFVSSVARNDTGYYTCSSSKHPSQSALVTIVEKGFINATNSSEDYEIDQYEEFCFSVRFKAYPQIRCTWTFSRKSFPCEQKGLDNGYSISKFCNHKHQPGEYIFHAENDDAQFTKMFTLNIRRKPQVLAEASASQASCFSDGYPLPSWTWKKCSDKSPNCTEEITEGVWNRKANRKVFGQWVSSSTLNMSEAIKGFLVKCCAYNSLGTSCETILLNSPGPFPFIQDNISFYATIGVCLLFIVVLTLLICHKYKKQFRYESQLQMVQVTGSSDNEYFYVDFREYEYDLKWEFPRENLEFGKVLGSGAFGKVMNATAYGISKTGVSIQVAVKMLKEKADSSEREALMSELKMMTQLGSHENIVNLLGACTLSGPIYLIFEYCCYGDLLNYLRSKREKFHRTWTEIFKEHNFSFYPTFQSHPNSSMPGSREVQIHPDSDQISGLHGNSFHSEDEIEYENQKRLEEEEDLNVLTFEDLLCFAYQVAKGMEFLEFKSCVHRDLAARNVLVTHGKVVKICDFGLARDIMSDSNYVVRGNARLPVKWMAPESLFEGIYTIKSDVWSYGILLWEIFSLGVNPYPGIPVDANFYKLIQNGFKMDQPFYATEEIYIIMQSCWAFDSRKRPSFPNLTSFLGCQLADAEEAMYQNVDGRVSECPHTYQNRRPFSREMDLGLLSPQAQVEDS", "settings": "0.1 µM, binder"}}, "note": "Read-outs that look alike come from different tables or passages of the source."}
{"smiles": "CNc1ncc2cc(-c3ccc(-c4cccc(C)n4)cc3Cl)c(=O)n(C[C@H]3OC[C@H](N)CO3)c2n1", "note": "[compound 6, G-5555]", "values": [{"measurement": "Percent Control", "setting": "PIM3", "value": 100, "unit": "%"}, {"measurement": "Percent Control", "setting": "PIK3CA(M1043I)", "value": 76, "unit": "%"}, {"measurement": "Percent Control", "setting": "EPHB3", "value": 100, "unit": "%"}, {"measurement": "Percent Control", "setting": "STK39", "value": 100, "unit": "%"}, {"measurement": "Percent Control", "setting": "ACVR1", "value": 97, "unit": "%"}, {"measurement": "Percent Control", "setting": "CSNK1D", "value": 90, "unit": "%"}, {"measurement": "Percent Control", "setting": "GSK3B", "value": 97, "unit": "%"}, {"measurement": "Percent Control", "setting": "CSNK1E", "value": 100, "unit": "%"}, {"measurement": "Percent Control", "setting": "CDC2L1", "value": 100, "unit": "%"}, {"measurement": "Percent Control", "setting": "PIKFYVE", "value": 100, "unit": "%"}, {"measurement": "Percent Control", "setting": "CASK", "value": 96, "unit": "%"}, {"measurement": "Percent Control", "setting": "JNK3", "value": 92, "unit": "%"}, {"measurement": "Percent Control", "setting": "CLK4", "value": 97, "unit": "%"}, {"measurement": "Percent Control", "setting": "MET(M1250T)", "value": 76, "unit": "%"}, {"measurement": "Percent Control", "setting": "PIK3CG", "value": 87, "unit": "%"}, {"measurement": "Percent Control", "setting": "LIMK2", "value": 100, "unit": "%"}, {"measurement": "Percent Control", "setting": "ADCK4", "value": 99, "unit": "%"}, {"measurement": "Percent Control", "setting": "PKAC-beta", "value": 100, "unit": "%"}, {"measurement": "Percent Control", "setting": "PKN1", "value": 100, "unit": "%"}, {"measurement": "Percent Control", "setting": "PIM2", "value": 100, "unit": "%"}, {"measurement": "Percent Control", "setting": "PIK4CB", "value": 97, "unit": "%"}, {"measurement": "Percent Control", "setting": "FLT3", "value": 100, "unit": "%"}, {"measurement": "Percent Control", "setting": "FLT3; autoinhibited", "value": 94, "unit": "%"}]}
